Values joined by “and” are separate entries in the source; they are usually repeats but may differ in a detail not shown here. Equal values may be shown once.
Experiments:
[1] = Chronic toxicity in rat assessed as increase in relative mass of adrenal gland administered intravenously as pluronic F127 formulation at 4 intervals for 21 days and observed 3 weeks post last injection relative to control; format: tissue-based; conditions: in vivo, iv, 2544 h, time 106 day
[2] = Acute toxicity in Wistar rat assessed as liver damage at 15 to 279 mg/kg, iv administered as pluronic F127 formulation and measured for 14 days; format: organism-based; conditions: in vivo, 336 h, dose 15-279 mg/kg, time 14 day
[3] = Chronic toxicity in Soviet Chinchilla rabbit assessed as increase in relative liver mass administered intravenously as pluronic F127 formulation at 4 intervals for 21 days and observed 3 weeks post last injection relative to control; format: tissue-based, Oryctolagus cuniculus; conditions: in vivo, iv, 2544 h, time 106 day
[4] = Acute toxicity in ICR mouse assessed as lethal dose administered intravenously as pluronic F127 formulation and measured for 14 days; conditions: in vivo, route iv, time 14 day
[5] = Chronic toxicity in rat assessed as reduction in number of crossed squares at 22.5 mg/kg, iv administered as pluronic F127 formulation at 4 intervals for 21 days and observed 3 weeks post last injection; format: organism-based; conditions: in vivo, 2544 h, time 106 day
[6] = AUC (0 to t) in Albino Wistar rat at 15 mg/kg, iv administered as pluronic F127 formulation measured upto 72 hrs by high-performance liquid chromatography tandem mass spectrometric analysis; format: ADME, organism-based; design: dose 15 mg/kg, time < 72 hrs, route iv; conditions: in vivo
[7] = Toxicity in BALB/c nude mouse xenografted with human DU-145 cells assessed as animal death at 30 to 60 mg/kg, ip measured upto 30 days; format: organism-based; conditions: in vivo, 720 h, dose 30-60 mg/kg, time < 30 day
[8] = C0 in Albino Wistar rat at 15 mg/kg, iv administered as pluronic F127 formulation measured upto 72 hrs by high-performance liquid chromatography tandem mass spectrometric analysis; format: ADME, organism-based; conditions: in vivo
[9] = Chronic toxicity in rat assessed as increase in relative mass of stomach administered intravenously as pluronic F127 formulation at 4 intervals for 21 days and observed 3 weeks post last injection relative to control; format: tissue-based; conditions: in vivo, iv, 2544 h, time 106 day
[10] = Subchronic toxicity in Wistar rat assessed as diarrhoea at 58 mg/kg, iv administered as pluronic F127 formulation daily for 28 days and observed on days 4 to 5; format: organism-based; conditions: in vivo, 672 h, time 28 day
[11] = Toxicity in Balb/c nude mouse xenografted with human 22Rv1 cells assessed as animal death at 20 mg/kg, ip measured upto 30 days; format: organism-based, CWR22R; conditions: in vivo, 720 h, time < 30 day
[12] = Chronic toxicity in Soviet Chinchilla rabbit assessed as urine alkalization at 10.17 to 12.21 mg/kg, iv administered as pluronic F127 formulation at 4 intervals for 21 days and observed 3 weeks post last injection; format: organism-based, Oryctolagus cuniculus; conditions: in vivo, 2544 h, dose 10.17-12.21 mg/kg, time 106 day
[13] = Acute toxicity in ICR mouse assessed as violation of motor activity in hind limb administered intravenously as pluronic F127 formulation and measured for 14 days; conditions: in vivo, iv, 336 h, dose 183-960 mg/kg, time 14 day
[14] = Stability of the compound in pH 5.5 buffer measured upto 96 hrs by LC-MS based mass spectrometric analysis; format: physicochemical; conditions: pH 5.5, 96 h
[15] = tested on: DU-145; test: Antitumor activity against human DU-145 cells xenografted in BALB/c nude mouse assessed as reduction in tumor growth index at 30 mg/kg, ip measured upto 30 days; format: functional; design: scale not given: the % may be the effect or the level left; conditions: time <= 30 day
[16] = Acute toxicity in Wistar rat assessed as decrease in body weight administered intravenously as pluronic F127 formulation and measured for 14 days; conditions: in vivo, iv, 336 h, dose 15-279 mg/kg, time 14 day
[17] = Chronic toxicity in Soviet Chinchilla rabbit assessed as external signs of intoxication administered intravenously as pluronic F127 formulation at 4 intervals for 21 days and observed 3 weeks post last injection; design: species or system Oryctolagus cuniculus; conditions: in vivo, iv, 2544 h, time 106 day
[18] = Chronic toxicity in rat assessed as hair loss at 22.5 mg/kg, iv administered as pluronic F127 formulation at 4 intervals for 21 days and observed 3 weeks post last injection; format: organism-based; conditions: in vivo, 2544 h, time 106 day
[19] = Half-life in Soviet Chinchilla rabbit at 8.1 mg/kg, iv administered as pluronic F127 formulation measured upto 72 hrs by high-performance liquid chromatography tandem mass spectrometric analysis; format: ADME, organism-based, Oryctolagus cuniculus; conditions: in vivo
[20] = tested on: CWR22R; test: Antitumor activity against human 22Rv1 cells xenografted in Balb/c nude mouse assessed as tumor growth inhibition at 10 mg/kg, ip administered once in two days for three times and measured 7 days after the end of treatment relative to control; format: functional; conditions: 22Rv1, 312 h, time 13 day, read-out: TGI
[21] = Chronic toxicity in rat assessed as reduction in body weight at 15 to 18.75 mg/kg, iv administered as pluronic F127 formulation at 4 intervals for 21 days and observed on 77 th day; format: organism-based; conditions: in vivo, 1848 h, dose 15-18.75 mg/kg, time 77 day
[22] = Subchronic toxicity in Wistar rat assessed as decrease in body weight at 58 mg/kg, iv administered as pluronic F127 formulation daily for 28 days; format: organism-based; conditions: in vivo, 672 h, time 28 day
[23] = Acute toxicity in ICR mouse assessed as animal death at 183 to 960 mg/kg, iv administered for 14 days as pluronic F127 formulation and measured after 5 days; format: organism-based; conditions: in vivo, 456 h, dose 183-960 mg/kg, time 19 day
[24] = Chronic toxicity in rat assessed as reduction in standing up at 22.5 mg/kg, iv administered as pluronic F127 formulation at 4 intervals for 21 days and observed 3 weeks post last injection; format: organism-based; conditions: in vivo, 2544 h, time 106 day
[25] = Acute toxicity in Wistar rat assessed as violation of motor activity in hind limb administered intravenously as pluronic F127 formulation and measured for 14 days; conditions: in vivo, iv, 336 h, dose 15-279 mg/kg, time 14 day
[26] = Acute toxicity in Wistar rat assessed as maximum tolerated dose administered intravenously as pluronic F127 formulation and measured for 14 days; conditions: in vivo, route iv, time 14 day
[27] = Chronic toxicity in rat assessed as increase in relative mass of liver at 15 to 22.5 mg/kg, iv administered as pluronic F127 formulation at 4 intervals for 21 days and observed 3 weeks post last injection relative to control; format: organism-based; conditions: in vivo, 2544 h, dose 15-22.5 mg/kg, time 106 day
[28] = tested on: CWR22R; test: Antitumor activity against human 22Rv1 cells xenografted in Balb/c nude mouse assessed as tumor growth inhibition at 20 mg/kg, ip administered once in two days for three times and measured 7 days after the end of treatment relative to control; format: functional; conditions: 22Rv1, 312 h, time 13 day, read-out: TGI
[29] = Half-life in Albino Wistar rat at 15 mg/kg, iv administered as pluronic F127 formulation measured upto 72 hrs by high-performance liquid chromatography tandem mass spectrometric analysis; format: ADME, organism-based; conditions: in vivo
[30] = MRT (0 to t) in Soviet Chinchilla rabbit at 8.1 mg/kg, iv administered as pluronic F127 formulation measured upto 72 hrs by high-performance liquid chromatography tandem mass spectrometric analysis; format: ADME, organism-based, Oryctolagus cuniculus; conditions: in vivo
[31] = C0 in Soviet Chinchilla rabbit at 8.1 mg/kg, iv administered as pluronic F127 formulation measured upto 72 hrs by high-performance liquid chromatography tandem mass spectrometric analysis; format: ADME, organism-based, Oryctolagus cuniculus; conditions: in vivo
[32] = Chronic toxicity in rat assessed as increase in relative lung mass administered intravenously as pluronic F127 formulation for 4 intervals of 21 days and observed 3 weeks post last injection relative to control; conditions: in vivo, iv, 2544 h, time 106 day

## CC(=O)O[C@@]12CO[C@@H]1C[C@H](O)[C@@]1(C)C(=O)[C@H](O)C3=C(C)[C@@H](OC(=O)[C@H](OC(=O)CCCc4cn(CCCNC(=O)[C@H](Cc5ccc(O)cc5)NC(=O)[C@H](Cc5ccccc5)NC(=O)CCC(=O)NCCCCCC(=O)N(CCCC[C@H](NC(=O)N[C@@H](CCC(=O)O)C(=O)O)C(=O)O)Cc5cccc(Cl)c5)nn4)[C@@H](NC(=O)OC(C)(C)C)c4ccccc4)C[C@@](O)([C@@H](OC(=O)c4ccccc4)[C@H]21)C3(C)C
[1]
  Activity: Toxic
[2]
  Activity: Toxic
[3]
  Activity: Toxic
[4]
  LD50 at 336 h: 409 mg/kg and 210 µmol/kg
[5]
  Activity: Toxic
[6]
  AUC(0-t) at 72 h: 28000 ng·h/mL
[7]
  Activity: Non-Toxic
[8]
  C0 at 72 h: 153 µg/mL
[9]
  Activity: Toxic
[10]
  Activity: Toxic
[11]
  Activity: Non-Toxic
[12]
  Activity: Toxic
[13]
  Activity: Toxic
[14]
  Stability: Unstable
[15]
  Activity: 190.1%
[16]
  Activity: Toxic
[17]
  Activity: Non-Toxic
[18]
  Activity: Toxic
[19]
  half-life: 8.1 h
[20]
  inhibition in vivo at 10 mg/kg: 87%
[21]
  Activity: Toxic
[22]
  Activity: Toxic
[23]
  Activity: Toxic
[24]
  Activity: Toxic
[25]
  Activity: Toxic
[26]
  MTD at 336 h: 15 mg/kg
[27]
  Activity: Toxic
[28]
  inhibition in vivo at 20 mg/kg: 85%
[29]
  half-life: 0.997 h
[30]
  MRT last at 72 h: 7.4 h
[31]
  C0 at 72 h: 79 µg/mL
[32]
  Activity: Toxic
